Assay results as given in patent US20250236589A1, “THERAPEUTIC PHENETHYLAMINE COMPOSITIONS AND METHODS OF USE” (Cybin IRL Limited, priority 2022, published 2025).
Entries after “also recorded” stand apart in the source; their conditions may differ.

What was measured:
[1] = In vitro liver microsome stability (RLM); format: in vitro ADME; settings: rat, rat liver microsomes, 0.5 mg/mL microsomes, NADPH, read-out: RLM, t1/2
Description: (§1) In vitro stability was determined in Human (HLM), Rat (RLM), Mouse (MsLM), and dog (DLM) Liver Microsomes. All liver microsomes were purchased from a commercial supplier (e.g. XenoTech). The reaction mixture, minus NADPH, was prepared as described below. The test compound was added into the reaction mixture at a final concentration of 1 μM or co-dosed with their deuterated analog(s) at 1 μM each. The control compound, testosterone, was run simultaneously with the test compound in a separate reaction. The reaction mixture (without cofactor) was equilibrated in a shaking water bath at 37° C. for 5 minutes. The reaction was initiated by the addition of the cofactor, and the mixture was incubated in a shaking water bath at 37° C. Aliquots (150 μL) were withdrawn at 0, 5, 10, 20, 30, 60, and 120 minutes. Test compound and testosterone samples were immediately combined with 150 μL of ice-cold acetonitrile (ACN) containing 0.1% formic acid and internal standard to terminate the reaction. The samples were then mixed and centrifuged to precipitate proteins. All samples were assayed by LC-MS/MS using electrospray ionization. The peak area response ratio (PARR) of analyte to internal standard at each time point was compared to the PARR at time 0 to determine the percent remaining at each time point. Half-lives were calculated using GraphPad software, fitting to a single-phase exponential decay equation.

[2] = In vitro liver microsome stability (MsLM); format: in vitro ADME; settings: mouse, mouse liver microsomes, 0.5 mg/mL microsomes, NADPH, read-out: MsLM, t1/2
Description: as §1, with “The peak area response ratio (PARR) of analyte to internal standard at each time point was compared to the PARR at time 0 to determine the percent remaining at each time point.” left out

C57BL/6J mice [3] = experiment: HTR time course after s.c. administration in C57BL/6J mice; format: in vivo, mouse
Description: 5-HT2 agonist activity and relative duration of action in vivo of test compounds were assessed using the HTR assay in male, adult C57BL/6J mice (Jackson Laboratories). Mice were housed in standard laboratory cages with ad libitum access to food and water, and were acclimated to the vivarium for at least one week prior to testing in a procedure room. On the day of testing, mice were acclimated to the procedure room in their home cages for ≥60 min before administration of test compounds. Mice were injected subcutaneously, placed immediately thereafter in a clear, polycarbonate box (46×20×20 cm), and HTRs were counted at 5, 10, 15, 40, 120, 160, 200, 240, 280, 320, 360, and 1440 min, using hand-held tally counters, by two trained observers who were blind to treatment.

C57BL/6J mice [4] = experiment: HTR after oral or s.c. administration in C57BL/6J mice; format: in vivo, mouse
Description: In another experiment, C57BL/6J mice were moved to the behavior room 30 min prior to administration of the test compound. Test compound was administered either s.c. or p.o. at 1 to 10 mg/kg immediately prior to testing and HTR activity was assessed from 1-30 min and again from 120-150 by blind experienced testers in real-time.

[5] = PK profile in Wistar rats (plasma, brain, urine); format: in vivo, rat
Description: PK profile in Rats. To evaluate the full PK profile for I-1 in rats, plasma and brain pharmacokinetic and urinary excretion of I-1 in male Wistar rats after IV dose at 1 mg/kg and an oral (p.o.) dose at 5 mg/kg administration were determined. Plasma, brain, and urine samples were collected at specified time points after single dose administration of I-1 and quantification of I-1 in the samples was accomplished using LC-MS/MS. The pharmacokinetic parameters were determined as described above.

Brain protein binding = format: in vitro ADME; settings: dilute brain homogenate
Source text: The CSF concentrations were only 20% of that found in plasma. Concomitantly CSF concentrations were 1.6% of brain concentrations. The CSF/brain ratio corroborates brain protein binding experiments in which the free fraction of compound I-1 in dilute brain homogenate was 1.4%.

[6] = male, Wistar, rat, po, brain, p.o. 5 mg/kg
[7] = male, Wistar, rat, po, plasma, p.o. 5 mg/kg
[8] = male, Wistar, rat, brain, IV 1 mg/kg
[9] = male, Wistar, rat, plasma, IV 1 mg/kg

Q: What does the source list for `COc1cc(SC(F)(F)F)c(OC)cc1CCN` [Compound I-1, 2-(2,5-dimethoxy-4-((trifluoromethyl)thio)phenyl)ethan-1-amine]?
A: half-life at 1 μM [1]: 0.92 h; half-life at 1 μM [2]: > 2 h; HTR, dose-response (C57BL/6J mice [3]; 0.1, 0.3, 1, 3 mg/kg s.c.): robust dose-dependent HTR; HTR duration versus DOI (C57BL/6J mice [3]; DOI 1 mg/kg s.c.): persisted longer; HTR after oral administration (C57BL/6J mice [4]; 1, 3, 10 mg/kg p.o.): elicited the HTR; also recorded: dose-dependent increase in HTRs; HTR duration versus DOI, oral (C57BL/6J mice [4]; p.o.): greater duration than DOI; mean total amount recovered in urine ([5]; IV 1 mg/kg, n=2): 718 ng; % F (AUCINF) ([5]; absolute oral bioavailability, p.o. 5 mg/kg): 19.1%; Cmax, brain concentration ([5]; brain, IV 1 mg/kg): 890 ng/g; T1/2 ([5]; brain, IV 1 mg/kg): 2.44 h; Cmax, brain concentration ([5]; brain, p.o. 5 mg/kg): 402 ng/g; T1/2 ([5]; brain, p.o. 5 mg/kg): 4.71 h; total systemic clearance relative to total hepatic blood flow ([5]; hepatic blood flow 3.3 L/hr/kg): approximately 6 fold; head twitching observed ([5]; immediately after IV 1 mg/kg, 1.5 hr after oral 5 mg/kg): mild to moderate-grade head twitching; Tmax ([5]; male, Wistar, rat, brain, iv, 1 mg/kg, IV 1 mg/kg): 0.5 h; Tmax ([5]; male, Wistar, rat, brain, po, 5 mg/kg, p.o. 5 mg/kg): 2 h; Tmax ([5]; male, Wistar, rat, plasma, iv, 1 mg/kg, IV 1 mg/kg): 0.083 h; AUC(0-inf) [5, 6]: 2880 ng·h/mL; AUC(0-t) [5, 6]: 1860 ng·h/mL; Cmax [5, 6]: 402 ng/mL; MRT last [5, 6]: 3.3 h; half-life [5, 6]: 4.71 h; AUC(0-inf) [5, 7]: 49.7 ng·h/mL; AUC(0-t) [5, 7]: 40.3 ng·h/mL; Cmax [5, 7]: 18.6 ng/mL; MRT last [5, 7]: 2.25 h; half-life [5, 7]: 3.53 h; CL renal ([5]; male, Wistar, rat, urine, IV 1 mg/kg, read-out: Renal clearance (converted)): 1.14 mL/min/kg; dose excreted ([5]; male, Wistar, rat, urine, IV 1 mg/kg, read-out: percentage recovery in urine): 0.07%; AUC(0-inf) [5, 8]: 3260 ng·h/mL; AUC(0-t) [5, 8]: 2910 ng·h/mL; Cmax [5, 8]: 890 ng/mL; MRT last [5, 8]: 2.54 h; half-life [5, 8]: 2.44 h; AUC(0-inf) [5, 9]: 50.7 ng·h/mL; AUC(0-t) [5, 9]: 42.2 ng·h/mL; Cmax [5, 9]: 54.1 ng/mL; MRT last [5, 9]: 0.62 h; clearance [5, 9]: 328 mL/min/kg; half-life [5, 9]: 0.78 h; C0 ([5]; male, Wistar, rat, plasma, IV 1 mg/kg, extrapolated): 67.2 ng/mL; Vd ([5]; male, Wistar, rat, plasma, IV 1 mg/kg, read-out: Vz): 22.2 L/kg; Cl ([5]; plasma, IV 1 mg/kg): 328 mL/min/kg; T1/2 ([5]; plasma, IV 1 mg/kg): 0.78 h; T1/2 ([5]; plasma, p.o. 5 mg/kg): 3.53 h; volume of distribution relative to total body water ([5]; total body water 0.7 L/kg): approximately 32 fold; fraction unbound (Brain protein binding): 0.014
